Reference: PubChem BioAssay (NCI)
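Cells were grown in 96-well plates and exposed to each compound for 48 hours at five concentrations; endpoints were interpolated linearly between bracketing concentrations, or set to the highest concentration if not reached. The concentration for 50% growth inhibition is given as GI50. The concentration for full growth arrest is given as TGI.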

What was measured:
Assay in all cases: growth of human tumour cells (NCI), 48 h
ACHN renal = test system: ACHN renal
CCRF-CEM leukemia = test system: CCRF-CEM leukemia
HL-60(TB) leukemia = test system: HL-60(TB) leukemia
HOP-92 NSCLC = test system: HOP-92 NSCLC
HT29 colon = test system: HT29 colon
IGROV1 ovarian = test system: IGROV1 ovarian
SF-295 CNS = test system: SF-295 CNS
SK-MEL-2 melanoma = test system: SK-MEL-2 melanoma
SK-MEL-28 melanoma = test system: SK-MEL-28 melanoma
NCI-H23 lung = test system: NCI-H23 lung

SMILES	GI50 (ACHN renal) [µM]	TGI (ACHN renal) [µM]	GI50 (CCRF-CEM leukemia) [µM]	TGI (CCRF-CEM leukemia) [µM]	GI50 (HL-60(TB) leukemia) [µM]	TGI (HL-60(TB) leukemia) [µM]	GI50 (HOP-92 NSCLC) [µM]	TGI (HOP-92 NSCLC) [µM]	GI50 (HT29 colon) [µM]	TGI (HT29 colon) [µM]	GI50 (IGROV1 ovarian) [µM]	TGI (IGROV1 ovarian) [µM]	GI50 (SF-295 CNS) [µM]	TGI (SF-295 CNS) [µM]	GI50 (SK-MEL-2 melanoma) [µM]	TGI (SK-MEL-2 melanoma) [µM]	GI50 (SK-MEL-28 melanoma) [µM]	TGI (SK-MEL-28 melanoma) [µM]	TGI (NCI-H23 lung) [µM]	GI50 (NCI-H23 lung) [µM]
CCN(CCNS(C)(=O)=O)c1ccc(N)c(C)c1	2.09	4.9	2.29	7.29	7.01	25.7	4.13	16.3	6.16	28.7	4.3	13.4	16.7	34.3	14.3	29.3	13.4	27.4	–	–
COc1ccc(NC(=O)CSc2nnc(-c3ccc(NC(C)=O)cc3)o2)cc1	–	31.1	–	> 100	–	50.9	–	–	–	25.2	–	36.9	–	68.5	–	38	–	34.7	23.2	–
CC(=O)N/C(=C\c1ccccc1/C=C(\NC(C)=O)c1nc2cc(C)c(C)cc2[nH]1)c1nc2cc(C)c(C)cc2[nH]1	–	28.4	–	> 100	–	–	–	62.1	–	> 100	–	66.3	–	–	–	53.9	–	48.8	94.9	–
O=c1[nH]c(O)c(C=Nc2ccc(-c3nc4ccccc4o3)cc2)c(=O)[nH]1	> 100	> 100	–	–	81.9	> 100	> 100	> 100	–	–	> 100	> 100	23.7	68.9	37.8	> 100	16.6	47	–	–
CNc1nc(N)nc(Nc2ccc(I)cc2)c1N=O	–	> 100	–	> 100	–	> 100	–	–	–	> 100	–	> 100	–	> 100	–	> 100	–	> 100	> 100	–
C[N+](C)(C)CC(=O)N/N=C(/Cc1cc(=O)oc2cc(O)ccc12)C(=O)Nc1ccc(Cl)cc1	–	> 100	–	> 100	–	> 100	–	–	–	> 100	–	> 100	–	> 100	–	> 100	–	> 100	> 100	–
COc1ccc(Cl)cc1NC(=O)c1ccc(NC2=C(Cl)C(=O)N(Cc3ccccc3)C2=O)cc1	94.2	> 100	3.99	94.5	9.51	55.3	–	–	4.8	> 100	> 100	> 100	36.2	> 100	–	–	> 100	> 100	> 100	55.8
CSC[C@H](NC(=O)COc1cccc2cnccc12)C(=O)NC(Cc1ccccc1)C(O)C(=O)N1CSC[C@H]1C(=O)NC(C)(C)C (stereo partly specified)	–	84.9	–	> 100	–	91.4	–	–	–	> 100	–	> 100	–	> 100	–	> 100	–	> 100	> 100	–
CCOC(=O)Nc1c(C)nc2ccccn12	> 100	> 100	> 100	> 100	–	–	> 100	> 100	> 100	> 100	> 100	> 100	> 100	> 100	> 100	> 100	> 100	> 100	> 100	> 100
CC1=C(C(=O)Nc2ccccc2)C(c2ccc(Cl)c(Cl)c2)C(C(=O)Nc2ccccc2)=C(C)N1	–	24.9	–	71.4	–	–	–	–	–	24.6	–	37.1	–	25.5	–	–	–	25.7	27	–
CCSc1nc(N=Cc2ccccc2O)c2cn[nH]c2n1	29.8	> 100	–	–	–	–	–	–	30.7	> 100	40.9	> 100	23.9	80.2	39.9	> 100	33	> 100	34.9	15.2
O=S(=O)(OI(OI(OS(=O)(=O)C(F)(F)F)c1ccccc1)c1ccccc1)C(F)(F)F	–	> 100	–	91.1	–	36.5	–	–	–	–	–	> 100	–	> 100	–	> 100	–	–	–	–
NCCCn1c2c(c3ccc([N+](=O)[O-])cc3c1=O)C(=O)c1cc(I)ccc1-2	< 0.0179	1.29	< 0.01	0.279	< 0.0176	0.0733	0.65	2.25	0.0951	0.352	–	–	< 0.0218	1.53	0.649	2.28	–	–	1.22	0.0343
COc1cccc2c1O/C(=C\c1ccc([N+](=O)[O-])s1)C2=O	2.79	> 100	1.25	> 23.4	2.53	> 100	1.18	3.42	10.3	21.9	1.91	5	> 90.5	> 100	1.76	3.92	–	–	> 100	3.15
c1ccc2c(c1)CCc1c(-c3ccncc3)n[nH]c1-2	–	> 100	–	61.7	–	88.8	–	–	–	> 100	–	89.2	–	> 100	–	38.4	–	62.8	58.3	–
CCCN(CCC)c1c([N+](=O)[O-])cc(C(=O)N(CC)CC)cc1[N+](=O)[O-]	–	> 100	–	60.9	–	50.8	–	–	–	> 100	–	> 100	–	> 100	–	43.5	–	64.6	40.8	–
FC(F)(F)c1ccc2nc(NCc3ccccc3)c(-c3ccccc3)nc2c1	–	> 100	–	> 100	–	48.9	–	17.9	–	> 100	–	–	–	> 100	–	> 100	–	> 100	> 100	–
CNCCCNc1ccnc2cc(Cl)ccc12	19	61.3	–	–	22.1	65	9.51	39.1	13.4	55.5	18.8	63.8	27.1	> 100	19.6	37.9	15.5	34.6	> 100	30.8
